Biological target: T1, SIRT1 (Homo sapiens, UniProt Q96EB6)
T1 sequence (Q96EB6 1-747): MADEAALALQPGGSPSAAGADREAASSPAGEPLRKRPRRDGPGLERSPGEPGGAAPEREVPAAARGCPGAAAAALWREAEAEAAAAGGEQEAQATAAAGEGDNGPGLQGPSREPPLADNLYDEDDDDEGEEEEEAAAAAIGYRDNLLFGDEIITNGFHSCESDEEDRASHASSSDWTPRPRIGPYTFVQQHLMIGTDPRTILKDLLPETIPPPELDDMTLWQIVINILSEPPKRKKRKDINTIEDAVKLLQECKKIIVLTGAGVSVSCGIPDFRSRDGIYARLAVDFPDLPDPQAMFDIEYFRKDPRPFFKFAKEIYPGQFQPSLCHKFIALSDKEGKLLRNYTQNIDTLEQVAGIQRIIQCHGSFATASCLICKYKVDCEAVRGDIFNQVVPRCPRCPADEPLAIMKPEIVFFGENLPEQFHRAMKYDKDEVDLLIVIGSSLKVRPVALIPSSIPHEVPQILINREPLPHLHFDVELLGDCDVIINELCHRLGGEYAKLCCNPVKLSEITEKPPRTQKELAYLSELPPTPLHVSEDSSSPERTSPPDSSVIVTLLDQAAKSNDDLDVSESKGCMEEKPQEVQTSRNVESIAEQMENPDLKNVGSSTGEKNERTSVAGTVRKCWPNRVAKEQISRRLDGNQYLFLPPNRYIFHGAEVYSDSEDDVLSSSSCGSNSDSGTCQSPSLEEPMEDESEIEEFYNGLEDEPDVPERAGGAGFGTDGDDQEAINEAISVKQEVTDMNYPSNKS
Assay: Trp mass spectrometry assay of SIRT1 activation
Assay type: biochemical
Conditions: Trp mass spectrometry assay; EC1.5 = concentration of test compound that results in 150% activation of SIRT1
In short: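 N-terminal His-tagged human SIRT1 (10 nM, E. coli BL21(DE3)) with 0.5 μM Ac-RHKK(Ac)W-NH2 peptide and 120 μM βNAD+, 25 min at 25 °C in HEPES pH 7.5, formic acid stop. OAADPR or deacetylated peptide quantified by mass spectrometry; EC1.5 (50% activity increase over control) and Percent Maximum Activation reported.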

| Compound | Tryp AVG EC1.5 (μM) |
| --- | --- |
| CS(=O)(=O)Nc1cccc(-c2ccc3c(n2)N(C(=O)Nc2cnccn2)[C@H]2CCN3C2)c1 [Example 418] | B (B (EC1.5 1-25 μM)) |
| N#Cc1cc(-c2ccc3c(n2)N(C(=O)Nc2cnccn2)[C@H]2CCN3C2)ccc1F [Example 419] | A (A (EC1.5<1 μM)) |
| O=C(Nc1ccncn1)N1c2nc(N3CCCNCC3)ccc2N2CCC[C@H]1C2 [Example 420] | C (C (EC1.5>25 μM)) |
| O=C(Nc1ccncc1F)N1c2nc(-c3cccc(Cl)c3)ccc2N2CCC[C@H]1C2 [Example 421] | A (A (EC1.5<1 μM)) |
| O=C(Nc1ccccn1)N1c2nc(-c3ccnc(N4CC[C@H](F)C4)c3)ccc2N2CC[C@H]1C2 [Example 422] | A (A (EC1.5<1 μM)) |
| O=C(Nc1cnccn1)N1c2nc(-c3ccnc(N4CCC(F)(F)C4)c3)ccc2N2CC[C@H]1C2 [Example 423] | A (A (EC1.5<1 μM)) |
| COc1cc(NC(=O)N2c3nc(-c4ccnc(N5CC[C@@H](F)C5)c4)ccc3N3CC[C@H]2C3)ncn1 [Example 424] | B (B (EC1.5 1-25 μM)) |
| O=C(Nc1ccc(F)cn1)N1c2nc(-c3ccnc(N4CCC(F)(F)C4)c3)ccc2N2CC[C@H]1C2 [Example 425] | A (A (EC1.5<1 μM)) |
| N#Cc1ccccc1-c1ccc2c(n1)N(C(=O)Nc1cccnn1)[C@H]1CCCN2C1 [Example 426] | B (B (EC1.5 1-25 μM)) |
| Cc1nc(NC(=O)N2c3nc(-c4cncc(C(F)(F)F)c4)ccc3N3CCC[C@H]2C3)sc1C [Example 427] | A (A (EC1.5<1 μM)) |
| O=C(CCCC[C@@H]1SCC2NC(=O)NC21)NCCCCCC(=O)NCc1ccc(NC(=O)N2c3nc(-c4cccc(C(F)(F)F)c4)ccc3N3CC[C@H]2C3)cc1 (stereo partly shown) [Example 428] | A (A (EC1.5<1 μM)) |
| NCc1ccc(NC(=O)N2c3nc(-c4cccc(C(F)(F)F)c4)ccc3N3CC[C@H]2C3)cc1 [Example 429] | B (B (EC1.5 1-25 μM)) |
| O=C(CCCC[C@@H]1SCC2NC(=O)NC21)NCCCCCC(=O)NCc1ccc(NC(=O)N2c3nc(-c4cccc(C(F)(F)F)c4)ccc3N3CCC[C@H]2C3)cc1 (stereo partly shown) [Example 430] | A (A (EC1.5<1 μM)) |
| O=C(Nc1ccc(F)cn1)N1c2nc(-c3cncc(F)c3)ccc2N2CCC[C@H]1C2 [Example 431] | A (A (EC1.5<1 μM)) |
| O=C(Nc1cnccn1)N1c2nc(-c3cncc(F)c3)ccc2N2CCC[C@H]1C2 [Example 432] | B (B (EC1.5 1-25 μM)) |
| CS(=O)(=O)N1CCCN(c2ccc3c(n2)N(C(=O)Nc2ccncn2)[C@H]2CCCN3C2)CC1 [Example 433] | B (B (EC1.5 1-25 μM)) |
| CC(=O)N1CCCN(c2ccc3c(n2)N(C(=O)Nc2ccncn2)[C@H]2CCCN3C2)CC1 [Example 434] | C (C (EC1.5>25 μM)) |
| O=C(Nc1cnccn1)N1c2nc(-c3ccc(Cl)c(C(F)(F)F)c3)ccc2N2CC[C@H]1C2 [Example 435] | A (A (EC1.5<1 μM)) |
| O=C(Nc1cnccn1)N1c2nc(-c3ccnc(N4CC[C@H](F)C4)c3)ccc2N2CC[C@H]1C2 [Example 436] | A (A (EC1.5<1 μM)) |
| COc1cc(NC(=O)N2c3nc(-c4ccnc(N5CC[C@H](F)C5)c4)ccc3N3CC[C@H]2C3)ncn1 [Example 437] | B (B (EC1.5 1-25 μM)) |
| N#Cc1ccccc1-c1ccc2c(n1)N(C(=O)Nc1cccnc1)[C@H]1CCCN2C1 [Example 438] | B (B (EC1.5 1-25 μM)) |
| N#Cc1ccccc1-c1ccc2c(n1)N(C(=O)Nc1cncc(F)c1)[C@H]1CCCN2C1 [Example 439] | B (B (EC1.5 1-25 μM)) |
| COc1cc(NC(=O)N2c3nc(-c4ccccc4C#N)ccc3N3CCC[C@H]2C3)ncn1 [Example 440] | C (C (EC1.5>25 μM)) |
| O=C(Nc1ccccn1)N1c2nc(-c3cccnc3)ccc2N2CCC[C@H]1C2 [Example 441] | B (B (EC1.5 1-25 μM)) |
| COc1cc(NC(=O)N2c3nc(-c4cccnc4)ccc3N3CCC[C@H]2C3)ncn1 [Example 442] | B (B (EC1.5 1-25 μM)) |

| Compound | Tryp AVG EC1.5 (μM) |
| --- | --- |
| O=C(Nc1cnccn1)N1c2nc(-c3cccc(Cl)c3)cc(O)c2N2CCC[C@H]1C2 [Example 443] | B (B (EC1.5 1-25 μM)) |
| CC(C)(C)OC(=O)NCc1ccc(NC(=O)N2c3nc(-c4cccc(C(F)(F)F)c4)ccc3N3CCC[C@H]2C3)cc1 [Example 445] | A (A (EC1.5<1 μM)) |
| COC(=O)N1CCCN(c2ccc3c(n2)N(C(=O)Nc2ccncn2)[C@H]2CCCN3C2)CC1 [Example 446] | B (B (EC1.5 1-25 μM)) |
| CC(C)N1CCCN(c2ccc3c(n2)N(C(=O)Nc2ccncn2)[C@H]2CCCN3C2)CC1 [Example 447] | C (C (EC1.5>25 μM)) |
| O=C(Nc1ccccn1)N1c2nc(-c3ccnc(N4CC[C@@H](F)C4)c3)ccc2N2CC[C@H]1C2 [Example 448] | B (B (EC1.5 1-25 μM)) |
| N#Cc1ccccc1-c1ccc2c(n1)N(C(=O)Nc1ccccn1)[C@H]1CCCN2C1 [Example 449] | B (B (EC1.5 1-25 μM)) |
| N#Cc1ccccc1-c1ccc2c(n1)N(C(=O)Nc1cnccn1)[C@H]1CCCN2C1 [Example 450] | B (B (EC1.5 1-25 μM)) |
| N#Cc1ccccc1-c1ccc2c(n1)N(C(=O)Nc1ccncn1)[C@H]1CCCN2C1 [Example 451] | B (B (EC1.5 1-25 μM)) |
| O=C(Nc1cnccn1)N1c2nc(-c3cncc(C(F)(F)F)c3)ccc2N2CCC[C@H]1C2 [Example 452] | A (A (EC1.5<1 μM)) |
| O=C(Nc1cncc(F)c1)N1c2nc(-c3cccnc3)ccc2N2CCC[C@H]1C2 [Example 453] | B (B (EC1.5 1-25 μM)) |
| O=C(Nc1cnccn1)N1c2nc(-c3cccnc3)ccc2N2CCC[C@H]1C2 [Example 454] | B (B (EC1.5 1-25 μM)) |
| O=C(Nc1cccnc1)N1c2nc(-c3cccnc3)ccc2N2CCC[C@H]1C2 [Example 455] | B (B (EC1.5 1-25 μM)) |
| O=C(Nc1ccncn1)N1c2nc(-c3cccnc3)ccc2N2CCC[C@H]1C2 [Example 456] | B (B (EC1.5 1-25 μM)) |
| O=C(Nc1cccnn1)N1c2nc(-c3cccnc3)ccc2N2CCC[C@H]1C2 [Example 457] | B (B (EC1.5 1-25 μM)) |
| CN(C)c1ccc(-c2ccc3c(n2)N(C(=O)Nc2cnccn2)[C@H]2CCN3C2)cn1 [Example 458] | B (B (EC1.5 1-25 μM)) |
| N#Cc1cncc(-c2ccc3c(n2)N(C(=O)Nc2cnccn2)[C@H]2CCN3C2)c1 [Example 459] | A (A (EC1.5<1 μM)) |
| O=C(Nc1cncc(F)c1)N1c2nc(-c3cccc(C(F)(F)F)c3)ccc2S(=O)(=O)N2CC[C@H]1C2 [Example 460] | B (B (EC1.5 1-25 μM)) |
| O=C(Nc1cnccn1)N1c2nc(-c3ccc(Cl)c(Cl)c3)ccc2N2CC[C@H]1C2 [Example 461] | A (A (EC1.5<1 μM)) |
| O=C(Nc1cnccn1)N1c2nc(-c3ccnc(N4CC[C@@H](F)C4)c3)ccc2N2CC[C@H]1C2 [Example 462] | B (B (EC1.5 1-25 μM)) |
| O=C(Nc1ccc(F)cn1)N1c2nc(-c3ccnc(N4CC[C@H](F)C4)c3)ccc2N2CC[C@H]1C2 [Example 463] | A (A (EC1.5<1 μM)) |
| O=C(Nc1cncc(F)c1)N1c2nc(-c3ccnc(N4CC[C@@H](F)C4)c3)ccc2N2CC[C@H]1C2 [Example 464] | B (B (EC1.5 1-25 μM)) |
| Cc1ccc(-c2ccc3c(n2)N(C(=O)Nc2ccccn2)[C@H]2CCCN3C2)cn1 [Example 465] | B (B (EC1.5 1-25 μM)) |
| Cc1nc(NC(=O)N2c3nc(-c4cccnc4)ccc3N3CCC[C@H]2C3)sc1C [Example 466] | B (B (EC1.5 1-25 μM)) |
| Cc1ccc(-c2ccc3c(n2)N(C(=O)Nc2cccnn2)[C@H]2CCCN3C2)cn1 [Example 467] | B (B (EC1.5 1-25 μM)) |

Same assay, conditions: Trp mass spectrometry assay; concentration of test compound giving 150% activation of SIRT1

| Compound | Tryp AVG EC1.5 (μM) |
| --- | --- |
| O=C(Nc1cccnn1)N1c2nc(-c3cncc(C(F)(F)F)c3)ccc2N2CCC[C@H]1C2 [Example 412] | A (A (EC1.5<1 μM)) |
| Cc1noc(C)c1-c1ccc2c(n1)N(C(=O)Nc1cnccn1)[C@H]1CCN2C1 [Example 413] | C (C (EC1.5>25 μM)) |
| Cn1nccc1-c1ccc2c(n1)N(C(=O)Nc1cnccn1)[C@H]1CCN2C1 [Example 414] | B (B (EC1.5 1-25 μM)) |
| CS(=O)(=O)c1cccc(-c2ccc3c(n2)N(C(=O)Nc2cnccn2)[C@H]2CCN3C2)c1 [Example 415] | A (A (EC1.5<1 μM)) |
| O=C(Nc1cnccn1)N1c2nc(-c3cc(F)c(F)c(F)c3)ccc2N2CC[C@H]1C2 [Example 416] | C (C (EC1.5>25 μM)) |
| O=C(Nc1cnccn1)N1c2nc(-c3cncc(Cl)c3)ccc2N2CCC[C@H]1C2 [Example 417] | A (A (EC1.5<1 μM)) |

Same assay, conditions: Trp mass spectrometry assay; percent maximum fold activation of SIRT1; read-out: Tryp % Fold Act

| Compound | Emax |
| --- | --- |
| O=C(Nc1ccccn1)N1c2nc(-c3ccnc(N4CC[C@H](F)C4)c3)ccc2N2CC[C@H]1C2 [Example 422] | > 150% |
| O=C(Nc1cnccn1)N1c2nc(-c3cccc(Cl)c3)cc(O)c2N2CCC[C@H]1C2 [Example 443] | > 150% |
| O=C(Nc1cccnn1)N1c2nc(-c3cccnc3)ccc2N2CCC[C@H]1C2 [Example 457] | > 150% |
